Reference: patent US20200163913A1 (Shanghai Huali Biomedical Co., Ltd., priority 2017, published 2020)
Where two headings read alike, the source gives them in different places.

Columns and labels:
[1] = system: human cervical cancer cell HeLa; assay: CCK-8 cell proliferation inhibition, HeLa; type: cell-based; conditions: Homo sapiens, HeLa, 72 h, read-out: IC50 Hela
Protocol: (§1) Take more than 90% of live cells for experiments. Cell proliferation inhibition test uses EnoGeneCell™ Counting Kit-8 (CCK-8) cell viability detection kit. Cells are digested and counted to make a cell suspension with a concentration of 1×10^5 cells/mL, 100 μL of cell suspension (1×10^4 cells per well) was added to each well of a 96-well plate; Incubate in a 5% CO2 incubator for 24 hours; add 100 μL of the corresponding drug-containing culture medium to each well, and set a negative control group, a vehicle control group, and a positive control group, with 5 replicates in each group; place the 96-well plate at 37° C.

[2] = system: human gastric cancer cell MKN45; assay: CCK-8 cell proliferation inhibition, MKN45; type: cell-based; conditions: MKN-45, 72 h, read-out: IC50 MKN45
Protocol: as §1

[3] = system: human colon cancer cell HCT-116; assay: CCK-8 cell proliferation inhibition, HCT-116; type: cell-based; conditions: Homo sapiens, HCT-116, 72 h, read-out: IC50 HTC116
Protocol: as §1

[4] = system: human liver cancer cell HepG2; assay: CCK-8 cell proliferation inhibition, HepG2; type: cell-based; conditions: Homo sapiens, HepG2, 72 h, read-out: IC50 HepG2
Protocol: as §1

[5] = system: human gastric cancer cell MGC-803; assay: CCK-8 cell proliferation inhibition, MGC-803; type: cell-based; conditions: MGC-803, 72 h, read-out: IC50 MGC803
Protocol: as §1

[6] = system: human lung cancer cell A549; assay: CCK-8 cell proliferation inhibition, A549; type: cell-based; conditions: read-out: IC50 A549
Protocol: as §1

Tubulin = Tubulin polymerization activity test; type: biochemical; conditions: tubulin 4.8 mg/ml, 37° C., 340 nm; read-out: IC50 (Table 3, tubulin polymerization test)
Protocol: Tubulin (4.8 mg/ml) protein was mixed with the test compound in a PEM buffer (100 mM PIPES, 1 mM MgCl2 and 1 mM EGTA) containing 1 mM GTP and 5% glycerol. A SPECTRA MAX 190 (Molecular Device) spectrophotometer was used to monitor the microtubule polymerization at 37° C. by light scattering at 340 nm, and the microtubule polymerization was calculated from the absorbance value. Each sample was tested three times at ten different concentrations.

Arylsulfatase = Arylsulfatase activity assay in vitro; type: biochemical
Protocol: Weigh an appropriate amount of the test compound and dissolve it in dimethyl sulfoxide. Dilute it with Tris-HCl buffer for 2, 5, 10, 20, 50, 100, 200, 500, 1000, 2000, 5000, and 10,000 times. Add another dilution gradient to the sample. Arylsulfatase and potassium p-nitrophenyl sulfate are directly dissolved in Tris-HCl buffer. 40 μL of the test compound, 50 μL of arylsulfatase and 50 μL of potassium p-nitrobenzene sulfate were added to a 96-well plate for reaction. A blank control without enzymes and a standard control without test compounds are used. The volume is made up with Tris-HCl buffer. 405 nm detection in the microplate reader, each sample is measured for 40 times, and the interval is 30 s. The representative time node within the time period with good linearity of the absorbance value are selected for data analysis. The measured absorbance value are subtracted from the background value of the blank control and the initial value when the reaction time are 0. For comparison, calculate the inhibition rate at different concentrations, and use the built-in forecast function of excel to predict the IC50 value.

[7] = p-nitrophenyl sulfate substrate, 405 nm, read-out: IC50 sulfatase

Compound	IC50 ([1]; CCK-8, 72 h)	IC50 ([2]; CCK-8, 72 h)	IC50 ([3]; CCK-8, 72 h)	IC50 ([4]; CCK-8, 72 h)	IC50 ([5]; CCK-8, 72 h)	IC50 ([6]; A549, CCK-8, 72 h)	IC50 (Tubulin)	IC50 [1]	IC50 [2]	IC50 [3]	IC50 [4]	IC50 [5]	IC50 ([6]; A549, 72 h)	melting point	IC50 (Arylsulfatase; [7])	IC50 (Arylsulfatase; read-out: sulfatase inhibitory activity)
COc1ccc(/C=C\c2cc(OC)c(OC)c(OC)c2)cc1O [CA-4, (Z)-3,4,5-trimethoxy-3′-hydroxy-4′-methoxystilbene, reference compound]	11.3 µM	3.44 µM	9 µM	16 µM	1.76 µM	5.99 µM	–	–	–	–	–	–	–	–	–	–
COc1ccc(CCc2cc(OC)c(OC)c(OC)c2)cc1OS(N)(=O)=O [Compound A1-3, 3,4,5-trimethoxy-4′-methoxy-3′-sulfamate diphenylethane]	9.04 µM	11.9 µM	3.08 µM	1.14 µM	3.61 µM	15.8 µM	72.6 µM	–	–	–	–	–	–	–	–	–
CNS(=O)(=O)Oc1cc(/C=C\c2cc(OC)c(OC)c(OC)c2)ccc1OC [Compound A1-4, (Z)-3,4,5-trimethoxy-4′-methoxy-3′-N-methylsulfamate stilbene]	–	–	–	–	–	–	–	0.317 µM	0.369 µM	16.8 µM	0.263 µM	5.05 µM	0.269 µM	118.4 to 121.6 °C	–	–
COc1ccc(/C=C\c2cc(OC)c(OC)c(OC)c2)cc1OS(=O)(=O)N(C)C [Compound A1-5, (Z)-3,4,5-trimethoxy-4′-methoxy-3′-N,N-dimethylsulfamate stilbene]	–	–	–	–	–	–	3.1 µM	14.3 µM	7.14 µM	0.366 µM	9.96 µM	8.95 µM	0.987 µM	102.7 to 105.6 °C	–	–
CCOc1ccc(/C=C/c2cc(OC)c(OC)c(OC)c2)cc1OS(N)(=O)=O [Compound A2-2, (E)-3,4,5-trimethoxy-4′-ethoxy-3′-sulfamate stilbene]	5.64 µM	8.05 µM	9.12 µM	2.63 µM	7.63 µM	4.86 µM	–	–	–	–	–	–	–	–	–	–
CCOc1ccc(CCc2cc(OC)c(OC)c(OC)c2)cc1OS(N)(=O)=O [Compound A2-3, 3,4,5-trimethoxy-4′-ethoxy-3′-sulfamate diphenylethane]	2.93 µM	7.67 µM	10.2 µM	3.65 µM	3.59 µM	1.6 µM	–	–	–	–	–	–	–	122.3 to 126.7 °C	–	–
COc1cc(/C=C/c2ccc(OC(F)F)c(OS(N)(=O)=O)c2)cc(OC)c1OC [Compound A3-2, (E)-3,4,5-trimethoxy-4′-difluoromethoxy-3′-sulfamate stilbene]	–	–	–	–	–	–	12.5 µM	8.42 µM	9.24 µM	12.8 µM	5.54 µM	13.8 µM	28.2 µM	145.5 to 148.6 °C	–	–
COc1cc(CCc2ccc(OC(F)F)c(OS(N)(=O)=O)c2)cc(OC)c1OC [Compound A3-3]	35.6 µM	23.3 µM	26.5 µM	15.9 µM	71.4 µM	–	86.2 µM	–	–	–	–	–	–	142.5 to 145.8 °C	–	–
COc1cc(/C=C\c2cccc(OS(N)(=O)=O)c2)cc(OC)c1OC [Compound A4-1, (Z)-3,4,5-trimethoxy-3′-sulfamate stilbene]	16.3 µM	8.53 µM	9.5 µM	9.36 µM	15.3 µM	11 µM	–	–	–	–	–	–	–	107.1 to 110.6 °C	0.47 µM	< 0.5 µM
COc1cc(/C=C/c2cccc(OS(N)(=O)=O)c2)cc(OC)c1OC [Compound A4-2, (E)-3,4,5-trimethoxy-3′-sulfamate stilbene]	19 µM	27 µM	40.3 µM	11.8 µM	25 µM	21.5 µM	–	–	–	–	–	–	–	136.3 to 139.7 °C	–	–
COc1cc(CCc2cccc(OS(N)(=O)=O)c2)cc(OC)c1OC [Compound A4-3, 3,4,5-trimethoxy-3′-sulfamate diphenylethane]	27.1 µM	17.6 µM	52.5 µM	12 µM	25.7 µM	25.8 µM	–	–	–	–	–	–	–	108.4 to 120.8 °C	–	–
COc1ccc(/C=C\c2cc(OC)c(OC)c(OC)c2)cc1NS(N)(=O)=O [Compound A5-1, (Z)-3,4,5-trimethoxy-4′-methoxy-3′-aminosulfamate stilbene]	0.272 µM	0.5 µM	3.29 µM	0.752 µM	9.56 µM	0.299 µM	–	–	–	–	–	–	–	143.3 to 146.7 °C	–	–
COc1ccc(/C=C/c2cc(OC)c(OC)c(OC)c2)cc1NS(N)(=O)=O [Compound A5-2, (E)-3,4,5-trimethoxy-4′-methoxy-3′-aminosulfamate stilbene]	0.38 µM	6.19 µM	8.64 µM	7.53 µM	18.9 µM	7.42 µM	–	–	–	–	–	–	–	157.9 to 161.1 °C	–	–
COc1ccc(CCc2cc(OC)c(OC)c(OC)c2)cc1NS(N)(=O)=O [Compound A5-3, 3,4,5-trimethoxy-4′-methoxy-3′-aminosulfamate diphenylethane]	2.93 µM	8.21 µM	30.6 µM	8.1 µM	73.9 µM	12 µM	–	–	–	–	–	–	–	122.5 to 126.5 °C	–	–
C[C@]12CC[C@@H]3c4ccc(OS(N)(=O)=O)cc4CC[C@H]3[C@@H]1CCC2=O [EMATE, 3-(sulfamoyloxy)-estr-1,3,5 (10)-triene-17-one, reference compound]	–	–	–	–	–	–	25.9 µM	–	–	–	–	–	–	–	5.01 µM	–
COc1ccc(CCc2cc(OC)c(OC)c(OC)c2)cc1O [Erianin, 3,4,5-trimethoxy-3′-hydroxy-4′-methoxydiphenylethane, reference compound]	0.207 µM	0.425 µM	6.29 µM	0.237 µM	0.449 µM	0.22 µM	–	–	–	–	–	–	–	–	–	–
